Test results as given in paper PMC12580772, “A First-in-Human Study of ATM Inhibitor Lartesertib as Monotherapy in Patients with Advanced Solid Tumors” (Clinical Cancer Research, 2025).

Tests used:
γ-H2AX = assay: PD analysis: γ-H2AX in CD45+ lymphocytes after ex vivo bleomycin stimulation, flow cytometry; parameters: species or system human; details: 2, 4, 6 hours on Day 1, sustained Day 2 at 2 to 4 hours, all four DLs
Protocol: The PD analyses in blood were conducted using samples collected during Cycle 1 at the following time points: Day 1, pre-dose, and post-dose at 2, 4, and 6 hours; Day 2 at pre-dose and post-dose at 2 to 4 hours; and Day 22 at pre-dose and post-dose at 2 and 4 hours. These samples were analyzed to assess levels of the PD biomarker, γ-H2AX, a phosphorylated histone variant known to represent an early and sensitive marker of DSB response ([18]). Each sample was stimulated ex vivo with bleomycin, a DNA DSB inducer that activates ATM function, or with phosphate-buffered saline as a negative control. γ-H2AX was subsequently measured in the CD45^+ lymphocyte fraction by flow cytometry.

[1] = system: ctDNA somatic variant allele frequency; assay: Plasma ctDNA next-generation sequencing (Guardant Health OMNI panel), molecular response; assay type: in vivo, human; details: 21 evaluable patients
Protocol: (§1) Circulating immune factors (e.g., IFN-β, IFN-γ, IL-1β, IL-2, IL-4, IL-6, IL-8, IL-10, IL-12p70, IL-13, TNF-α, and NKG2DL) were assessed using immunofluorescence assays. Additionally, blood samples were tested for plasma ctDNA by next-generation sequencing at Guardant Health using the OMNI panel. This analysis was conducted to evaluate surrogate markers of tumor dynamics, sensitivity, and resistance to treatment. Molecular response (MR) was assessed and defined as strongest change of—per visit averaged—somatic variant allele frequency (VAF) against the pretreatment level as follows: Best delta mean VAF = MIN (meanVAFvisiti – meanVAFpretreatment / meanVAFpretreatment)

[2] = system: immune cell subsets and circulating immune factors; assay: Immunophenotyping by flow cytometry and circulating immune factors; assay type: in vivo, human
Protocol: Serial blood samples collected at each visit were tested for total blood cell counts and immune cell subsets (e.g., T cells, B cells, and NK cells) to evaluate immunophenotyping by flow cytometry.
as §1

[3] = system: human squamous cell carcinoma of the head and neck FaDu xenograft; parameters: method as in PMID 35405736; details: in combination with radiation; cited from earlier work
[4] = system: acute myeloid leukemia model Mv4.11; parameters: method as in PMID 37079339; details: combination with the ATR inhibitor gartisertib; cited from earlier work
[5] = system: HBC-x9 triple-negative breast cancer model; parameters: method as in PMID 35405736; details: combined with PARP inhibitors (rucaparib or niraparib), wild-type BRCA1/2; cited from earlier work
[6] = system: patient-derived xenograft models of triple-negative breast cancer; parameters: method as in PMID 37079339; details: lartesertib in combination with gartisertib; cited from earlier work

COc1cc2ncc3c(c2cc1-c1cn(C)nc1C)n(-c1c(F)cncc1OC)c(=O)n3C [lartesertib]
γ-H2AX target inhibition over time (γ-H2AX): trend of increasing lartesertib target inhibition
Patients with molecular response (ctDNA VAF decrease of ≥50% from baseline) [1]: four patients of 21 evaluable patients
NK cell subsets ([2]; across all DLs): negative trend
Cytokine modulation (IFN-γ, IL-10, IL-6, IL-8, and TNF-α) ([2]; among different DLs): No relevant trends
Levels of most explored immune cell subsets ([2]; tested DLs, incl. myeloid-derived suppressor cells, T and B lymphocytes): did not cause any significant change
Antitumor response [3]: significant dose-dependent antitumor responses
Tumor growth [4]: almost complete tumor regression
Efficacy and tolerability [5]: enhanced efficacy and acceptable tolerability
Tumor control rate [6]: 42%
